Where a name gives a salt, the structure may show the parent alone.
Key:
[1] = target: T1, full-length proMMP9(1-707) activation by catalytic MMP3 (Homo sapiens, UniProt P14780, R574P); experiment: proMMP9/MMP3 P126 Activation Assay; type: biochemical
T1 construct: made in house; host or cells: proMMP9: HEK293 (secreted); MMP3: E. coli
Description: proMMP9/MMP3 P126 Activation Assay
The reaction volume was 50 μL. […] Reactivity of residual MMP3 towards P-126 substrate was minimal under these conditions.

[2] = target: T2, proMMP9(20-445;ΔFnII) (SEQ ID NO:6) (Homo sapiens, UniProt P14780, DEL216-390); experiment: ThermoFluor binding assay with proMMP9(20-445;ΔFnII)
T2 construct: start methionine (N); made in house; host or cells: E. coli BL21(DE3) RIL
T2 sequence (P14780 with tags, fused parts or gaps DEL216-390): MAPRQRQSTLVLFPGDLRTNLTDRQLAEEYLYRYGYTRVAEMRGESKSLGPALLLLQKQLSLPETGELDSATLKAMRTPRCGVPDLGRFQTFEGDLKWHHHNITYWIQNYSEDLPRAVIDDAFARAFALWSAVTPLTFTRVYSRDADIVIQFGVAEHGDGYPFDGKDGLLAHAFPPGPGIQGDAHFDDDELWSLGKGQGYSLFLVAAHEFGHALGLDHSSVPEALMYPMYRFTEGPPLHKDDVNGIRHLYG
Description: (§1) The ThermoFluor® (TF) assay is a 384-well plate-based binding assay that measures thermal stability of proteins (Biomol Screen 2001, 6, 429-40; Biochemistry 2005, 44, 5258-66). The experiments were carried out using instruments available from Johnson & Johnson Pharmaceutical Research & Development, LLC. TF dye used in all experiments was […] (1,8-ANS) (Invitrogen: A-47).
(§2) Compounds were arranged in a pre-dispensed plate (Greiner Bio-one: 781280), wherein compounds were serially diluted in 100% DMSO across 11 columns within a series. Columns 12 and 24 were used as DMSO reference and contained no compound. For multiple compound concentration-response experiments, the compound aliquots (50 nL) were robotically predispensed directly into black 384-well polypropylene PCR microplates (Abgene: TF-0384/k) using a Cartesian Hummingbird liquid handler (DigiLab, Holliston, Mass.). Following compound dispense, protein and dye solutions were added to achieve the final assay volume of 3 μL. The assay solutions were overlayed with 1 μL of silicone oil (Fluka, type DC 200: 85411) to prevent evaporation.
(§3) Assay plates were robotically loaded onto a thermostatically controlled PCR-type thermal block and then heated from 40 to 90° C. at a ramp-rate of 1° C./min for all experiments. Fluorescence was measured by continuous illumination with UV light (Hamamatsu LC6) supplied via fiber optics and filtered through a band-pass filter (380-400 nm; >60D cutoff). Fluorescence emission of the entire 384-well plate was detected by measuring light intensity using a CCD camera (Sensys, Roper Scientific) filtered to detect 500±25 nm, resulting in simultaneous and independent readings of all 384 wells. A single image with 20-sec exposure time was collected at each temperature, and the sum of the pixel intensity in a given area of the assay plate was recorded vs temperature and fit to standard equations to yield the Tm (J Biomol Screen 2001, 6, 429-40).
(§4) Thermodynamic parameters necessary for fitting compound binding for each proMMP were estimated by differential scanning calorimetry (DSC) and from ThermoFluor® data. The heat capacity of unfolding for each protein was estimated from the molecular weight and from ThermoFluor® dosing data.
ThermoFluor® with proMMP9(20-445; ΔFnII (SEQ ID NO:6)
The protein sample preparations included a desalting buffer exchange step via a PD-10 gravity column (GE Healthcare). The desalting buffer exchange was performed prior to diluting the protein to the final assay concentration of 2.8 μM proMMP9(20-445;ΔFnII) (SEQ ID NO:6). The concentration of proMMP9(20-445;ΔFnII) (SEQ ID NO:6) was determined spectrophotometrically based on a calculated extinction coefficient of ε280=39880 M^−1 cm^−1, a calculated molecular weight of 28.2 kDa, and calculated pI of 5.5. ThermoFluor® reference conditions were define as follows: 80 μg/mL (2.8 μM) proMMP9(20-445;ΔFnII) (SEQ ID NO:6), 50 μM 1,8-ANS, pH 7.0 Buffer (50 mM HEPES pH 7.0, 100 mM NaCl, 0.001% Tween-20, 2.5 mM MgCl2, 300 μM CaCl2). The thermodynamic parameters for proMMP9(20-445;ΔFnII) (SEQ ID NO:6) are as follows: Tm (° C.)=72 (+/−0.1), ΔUH(Tm) (cal mol^−1)=160000(+/−5000), ΔUSTm (cal mol^−1 K^−1)=434, ΔUCp (cal mol^−1 K^−1)=2400.

[3] = target: T3, proMMP9(67-444;ΔFnII) (SEQ ID NO:5) (Homo sapiens, UniProt P14780, DEL216-390); experiment: ThermoFluor binding assay with proMMP9(67-444;ΔFnII)
T3 construct: start methionine (N); made in house; host or cells: E. coli BL21(DE3) RIL
T3 sequence (P14780 with tags, fused parts or gaps DEL216-390): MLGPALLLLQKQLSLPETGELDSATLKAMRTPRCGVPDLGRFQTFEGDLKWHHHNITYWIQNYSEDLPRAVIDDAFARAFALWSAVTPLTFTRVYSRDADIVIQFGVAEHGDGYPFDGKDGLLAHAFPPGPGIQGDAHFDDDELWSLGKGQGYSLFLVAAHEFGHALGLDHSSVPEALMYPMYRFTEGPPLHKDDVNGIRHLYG
Description: as §1, §2, §3, §4
ThermoFluor® with proMMP9(67-444;ΔFnM (SEQ ID NO:5)
The protein sample preparations had to include a desalting buffer exchange step via a PD-10 gravity column (GE Healthcare). The desalting buffer exchange was performed prior to diluting the protein to the final assay concentration of 3.5 μM proMMP9(67-444;ΔFnII) (SEQ ID NO:5). The concentration of proMMP9(67-444;ΔFnII) (SEQ ID NO:5) was determined spectrophotometrically based on a calculated extinction coefficient of ε280=33900 M^−1 cm^−1, a calculated molecular weight of 22.6 kDa, and calculated pI of 5.20. ThermoFluor® reference conditions were defined as follows: 80 μg/mL (3.5 μM) proMMP9(67-444;ΔFnII) (SEQ ID NO:5), 50 μM 1,8-ANS, pH 7.0 Buffer (50 mM HEPES pH 7.0, 100 mM NaCl, 0.001% Tween-20, 2.5 mM MgCl2, 300 μM CaCl2). The thermodynamic parameters for proMMP9(67-444;ΔFnII) (SEQ ID NO:5) are as follows: Tm (° C.)=63 (+/−0.1), ΔUH(Tm)(cal mol^−1)=105000(+/−5000), ΔUS(Tm) (cal mol^−1 K^−1)=450, ΔUCp (cal mol^−1 K^−1)=2000.

T1 sequence (P14780 20-707 R574P): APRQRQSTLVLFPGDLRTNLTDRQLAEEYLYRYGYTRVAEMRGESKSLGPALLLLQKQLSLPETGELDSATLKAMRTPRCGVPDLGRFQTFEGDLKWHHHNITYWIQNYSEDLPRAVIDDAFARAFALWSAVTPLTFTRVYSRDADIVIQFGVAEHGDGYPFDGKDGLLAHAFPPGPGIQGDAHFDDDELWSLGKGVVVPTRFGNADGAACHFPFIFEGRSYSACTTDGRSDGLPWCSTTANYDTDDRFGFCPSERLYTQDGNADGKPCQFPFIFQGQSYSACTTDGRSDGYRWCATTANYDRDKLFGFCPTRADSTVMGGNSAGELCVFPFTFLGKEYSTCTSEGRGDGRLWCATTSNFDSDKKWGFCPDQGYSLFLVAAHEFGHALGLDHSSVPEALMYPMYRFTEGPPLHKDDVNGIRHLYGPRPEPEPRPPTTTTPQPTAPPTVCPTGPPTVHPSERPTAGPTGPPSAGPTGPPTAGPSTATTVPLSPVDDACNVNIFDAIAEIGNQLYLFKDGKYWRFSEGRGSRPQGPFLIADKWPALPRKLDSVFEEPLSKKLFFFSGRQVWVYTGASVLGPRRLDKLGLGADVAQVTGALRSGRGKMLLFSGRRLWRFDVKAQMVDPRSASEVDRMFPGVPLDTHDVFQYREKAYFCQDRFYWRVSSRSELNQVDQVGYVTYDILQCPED

SMILES	IC50 [1]	Kd [2]	Kd [3]
CCOc1ccccc1Nc1nc2c(ccc3sc(N)nc32)s1 [Example 3, N^7-(2-Ethoxy-phenyl)-benzo[2,1-d;3,4-d′]bisthiazole-2,7-diamine.TFA]	1400 nM	3200 nM	1600 nM
CCOc1ccccc1Nc1nc2c(ccc3sc(Nc4ccccc4OCC)nc32)s1 [Example 4, N,N′-Bis-(2-ethoxy-phenyl)-benzo[2,1-d;3,4-d′]bisthiazole-2,7-diamine.TFA]	4700 nM	67000 nM	30000 nM
COc1ccc(Cl)cc1Nc1nc2c(ccc3nc(N)sc32)s1 [Example 7, N^7-(5-Chloro-2-methoxy-phenyl)-benzo[1,2-d;3,4-d′]-bisthiazole-2,7-diamine.TFA]	1700 nM	2300 nM	200 nM
Cc1nc2ccc3sc(Nc4ccccc4OC(C)C)nc3c2s1 [Example 17, (2-Isopropoxy-phenyl)-(2-methyl-benzo[1,2-d;3,4-d′]-bisthiazol-7-yl)-amine.HCl]	5800 nM	> 95000 nM	> 95000 nM
Cc1[nH]c2c(ccc3sc(Nc4cc(C(N)=O)ccc4OC(C)C)nc32)c1C [Example 45, 3-(6,7-Dimethyl-8H-3-thia-1,8-diaza-as-indacen-2-ylamino)-4-isopropoxy-benzamide.HCl]	3900 nM	780 nM	3300 nM
COc1ccccc1Nc1nc2c(ccc3c2ncn3C)s1 [Example 46, (2-Methoxy-phenyl)-(6-methyl-6H-imidazo[4′,5′:3,4]benzo[2,1-d]thiazol-2-yl)-amine.HCl]	150 nM	640 nM	240 nM
CC(C)Oc1ccc(C(N)=O)cc1Nc1nc2c(ccc3[nH]nnc32)s1 [Example 47, 4-Isopropoxy-3-(3H-thiazolo[4′,5′:3,4]benzo[1,2-d][1,2,3]triazol-7-ylamino)-benzamide.HCl]	600 nM	1000 nM	1600 nM
COc1c(F)cc(C(N)=O)cc1Nc1nc2c(ccc3c2ncn3C)s1 [Example 48, 3-Fluoro-4-methoxy-5-(6-methyl-6H-imidazo[4′,5′:3,4]benzo[2,1-d]thiazol-2-ylamino)-benzamide.HCl]	360 nM	1900 nM	810 nM
COc1ccc(NC(C)=O)cc1Nc1nc2c(ccc3c2ncn3C)s1 [Example 49, N-[4-Methoxy-3-(6-methyl-6H-imidazo[4′,5′:3,4]benzo[2,1-d]thiazol-2-ylamino)-phenyl]-acetamide.HCl]	1300 nM	4600 nM	1600 nM
COc1ccc(C(F)(F)F)cc1Nc1nc2c(ccc3c2ncn3C)s1 [Example 50, (2-Methoxy-5-trifluoromethyl-phenyl)-(6-methyl-6H-imidazo[4′,5′: 3,4]benzo[2,1-d]thiazol-2-yl)-amine.HCl]	1100 nM	3000 nM	1500 nM
COc1c(Nc2nc3c(ccc4c3ncn4C)s2)cc(C(N)=O)cc1C(F)(F)F [Example 53, 4-Methoxy-3-(6-methyl-6H-imidazo[4′,5′:3,4]benzo[2,1-d]thiazol-2-ylamino)-5-trifluoromethyl-benzamide.HCl]	4200 nM	4000 nM	6200 nM

Results, then the compound that gave them:

IC50 [1]	Kd [2]	Kd [3]	SMILES
~100 nM	–	–	COc1cc([N+](=O)[O-])ccc1Nc1nc2c(ccc3c2ncn3C)s1 [Example 83, (2-Methoxy-4-nitro-phenyl)-(6-methyl-6H-imidazo[4′,5′:3,4]benzo[2,1-d]thiazol-2-yl)-amine.HCl]
750 nM	–	–	COc1ccc(C#N)cc1Nc1nc2c(ccc3ocnc32)s1 [Example 84, 4-Methoxy-3-(thiazolo[4′,5′:3,4]-benzo[2,1-d]oxazol-7-ylamino)-benzonitrile]
3900 nM	–	–	CC(C)Cc1ccc(C(N)=O)cc1Nc1nc2c(ccc3c2ncn3C)s1 [Example 88, 4-Isobutyl-3-(6-methyl-6H-imidazo[4′,5′:3,4]-benzo[2,1-d]thiazol-2-ylamino)-benzamide]
1700 nM	76000 nM	–	COc1ccccc1Nc1nc2c(ccc3cnccc32)s1 [Example 100, (2-Methoxy-phenyl)-thiazolo[4,5-f]isoquinolin-2-yl-amine.TFA]
–	7700 nM	6100 nM	COc1ccc(S(N)(=O)=O)cc1Nc1nc2c(ccc3cnccc32)s1 [Example 104, 4-Methoxy-3-(thiazolo[4,5-f]isoquinolin-2-ylamino)-benzenesulfonamide.TFA]
> 20000 nM	> 95000 nM	–	COc1ccc(C#N)cc1Nc1nc2c(ccc3cnccc32)s1 [Example 151, 4-Methoxy-3-(thiazolo[4,5-f]isoquinolin-2-ylamino)-benzonitrile.TFA]
550 nM	–	–	CCn1c(C)nc2ccc3sc(Nc4cnccc4OC)nc3c21 [Example 152, 8-Ethyl-N-(4-methoxypyridin-3-yl)-7-methyl-8H-imidazo[4′,5′:5,6]benzo[1,2-d]thiazol-2-amine]
340 nM	480 nM	–	CC(C)Oc1ccc(S(N)(=O)=O)cc1Nc1nc2c(ccc3c2ccn3C)s1 [Example 161, 4-isopropoxy-3-((6-methyl-6H-thiazolo[4,5-e]indol-2-yl)amino)benzenesulfonamide.HCl]
640 nM	430 nM	–	Cn1ccc2c3nc(Nc4cc(S(N)(=O)=O)ccc4OC(F)(F)F)sc3ccc21 [Example 162, 3-((6-methyl-6H-thiazolo[4,5-e]indol-2-yl)amino)-4-(trifluoromethoxy)benzenesulfonamide.HCl]
110 nM	420 nM	–	COc1ccc(S(C)(=O)=O)cc1Nc1nc2c(ccc3c2ccn3C)s1 [Example 163, N-(2-methoxy-5-(methylsulfonyl)phenyl)-6-methyl-6H-thiazolo[4,5-e]indol-2-amine.HCl]

— patent publication US20120129811A1, “TRICYCLIC INHIBITORS OF PRO-MATRIX METALLOPROTEINASE ACTIVATION” (priority 2010, published 2012)
